Patent publication US7612064B2, “Sulfopyrroles” (Takeda Pharmaceutical Company Limited, priority 2003, dated 2009)

Columns and labels:
Jurkat = experiment: MTS proliferation assay; format: cell-based, human; conditions: 72 h
In short: (§1)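 Cells were exposed for 72 h under culture conditions to test compounds at final concentrations of 10, 3, 1 and 0.3 μM, added in complete medium with at most 5% DMSO. MTS reagent was then added for a further 3 h, and absorbance was read at 492 nm.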

HeLa = experiment: MTS proliferation assay; format: cell-based, human; conditions: 72 h
In short: as §1

MRC5 = experiment: MTS proliferation assay; format: cell-based; conditions: MRC5, 72 h
In short: as §1

Jily = experiment: MTS proliferation assay; format: cell-based; conditions: 72 h
In short: as §1

[1] = Hoechst 33342 nuclear staining; format: cell-based; conditions: for Hoechst 33342 nuclear staining score, H460: H460 cells; for Hoechst 33342 nuclear staining score, HeLa: HeLa cells; for Hoechst 33342 nuclear staining score, Jily: Jily cells; for Hoechst 33342 nuclear staining score, Jurkat: Jurkat cells; for Hoechst 33342 nuclear staining score, MRC5: MRC5 cells; for Hoechst 33342 nuclear staining score, PBLs: key: 0: no activity; 1: weak activity comprising less than 50% of the cells; 2: strong activity comprising more than 50% of the cells;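 for all read-outs here: apoptotic nuclei scored 0 none 1 weak under 50% of cells 2 strong over 50% of cells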
In short: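 Cells were plated in 96 well tissue culture plates in 80 μl complete medium, with 3-5*10^3 cells per well for adherent lines and 8-10*10^3 for suspension lines. Adherent cells spread for 24 h before treatment, while suspension cells were treated right after seeding. Compounds were added in 20 μl complete medium containing max 5% DMSO.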

Structure (SMILES) | IC50 (Jily) [µM] | Hoechst 33342 nuclear staining score, H460 ([1]; conc 0.1) | Hoechst 33342 nuclear staining score, H460 ([1]; conc 0.3) | Hoechst 33342 nuclear staining score, H460 ([1]; conc 1) | Hoechst 33342 nuclear staining score, H460 ([1]; conc 3) | Hoechst 33342 nuclear staining score, HeLa ([1]; conc 0.1) | Hoechst 33342 nuclear staining score, HeLa ([1]; conc 0.3) | Hoechst 33342 nuclear staining score, HeLa ([1]; conc 1) | Hoechst 33342 nuclear staining score, HeLa ([1]; conc 3) | Hoechst 33342 nuclear staining score, Jily ([1]; conc 0.1) | Hoechst 33342 nuclear staining score, Jily ([1]; conc 0.3) | Hoechst 33342 nuclear staining score, Jily ([1]; conc 1) | Hoechst 33342 nuclear staining score, Jily ([1]; conc 3) | Hoechst 33342 nuclear staining score, Jurkat ([1]; conc 0.1) | Hoechst 33342 nuclear staining score, Jurkat ([1]; conc 0.3) | Hoechst 33342 nuclear staining score, Jurkat ([1]; conc 1) | Hoechst 33342 nuclear staining score, Jurkat ([1]; conc 3) | Hoechst 33342 nuclear staining score, MRC5 ([1]; conc 0.1) | Hoechst 33342 nuclear staining score, MRC5 ([1]; conc 0.3) | Hoechst 33342 nuclear staining score, MRC5 ([1]; conc 1) | other results
COc1cc(-c2cc(-c3cccnc3)cn2S(=O)(=O)c2ccc(N)cc2)cc(OC)c1OC [Example 93] | > 1 | 0 | 0 | 0 | 0 | 0 | 0 | 0 | 0 | 0 | 0 | 0 | 0 | 0 | 0 | 0 | 0 | 0 | 0 | 0 | IC50 (Jurkat): > 1 µM; IC50 (HeLa): > 1 µM; IC50 (MRC5): > 1 µM; Hoechst 33342 nuclear staining score, MRC5 ([1]; conc 3): 0; Hoechst 33342 nuclear staining score, PBLs ([1]; conc 0.1): 0; Hoechst 33342 nuclear staining score, PBLs ([1]; conc 0.3): 0; Hoechst 33342 nuclear staining score, PBLs ([1]; conc 1): 0; Hoechst 33342 nuclear staining score, PBLs ([1]; conc 3): 0
COc1cc(-c2cc(-c3cccnc3)cn2S(=O)(=O)c2ccccc2)cc(OC)c1OC [Example 79] | > 1 | 0 | 0 | 0 | 0 | 0 | 0 | 0 | 0 | 0 | 0 | 0 | 0 | 0 | 0 | 0 | 0 | 0 | 0 | 0 | IC50 (Jurkat): < 1 µM; IC50 (HeLa): > 1 µM; IC50 (MRC5): > 1 µM; Hoechst 33342 nuclear staining score, MRC5 ([1]; conc 3): 0; Hoechst 33342 nuclear staining score, PBLs ([1]; conc 0.1): 0; Hoechst 33342 nuclear staining score, PBLs ([1]; conc 0.3): 0; Hoechst 33342 nuclear staining score, PBLs ([1]; conc 1): 0; Hoechst 33342 nuclear staining score, PBLs ([1]; conc 3): 0
COc1ccc(S(=O)(=O)n2cc(-c3cncc(C(N)=O)c3)cc2-c2cc(OC)c(OC)c(OC)c2)cc1 [Example 104, 4-(3-Aminocarbonylpyrid-5-yl)-1-p-methoxyphenylsulfonyl-2-(3,4,5-trimethoxyphenyl)-pyrrole] | < 0.2 | 0 | 2 (strong activity comprising more than 50% of the cells) | 2 (strong activity comprising more than 50% of the cells) | 2 (strong activity comprising more than 50% of the cells) | 0 | 2 (strong activity comprising more than 50% of the cells) | 2 (strong activity comprising more than 50% of the cells) | 2 (strong activity comprising more than 50% of the cells) | 0 | 2 (strong activity comprising more than 50% of the cells) | 2 (strong activity comprising more than 50% of the cells) | 2 (strong activity comprising more than 50% of the cells) | 0 | 2 (strong activity comprising more than 50% of the cells) | 2 (strong activity comprising more than 50% of the cells) | 2 (strong activity comprising more than 50% of the cells) | 0 | 1 (weak activity comprising less than 50% of the cells) | 2 (strong activity comprising more than 50% of the cells) | IC50 (Jurkat; Homo sapiens): < 0.2 µM; IC50 (HeLa; Homo sapiens): < 1 µM; IC50 (MRC5; Homo sapiens): < 0.2 µM; Hoechst 33342 nuclear staining score, MRC5 ([1]; conc 3): 2 (strong activity comprising more than 50% of the cells); Hoechst 33342 nuclear staining score, PBLs ([1]; conc 0.1): 0; Hoechst 33342 nuclear staining score, PBLs ([1]; conc 0.3): 0; Hoechst 33342 nuclear staining score, PBLs ([1]; conc 1): 0; Hoechst 33342 nuclear staining score, PBLs ([1]; conc 3): 0
COc1ccc(S(=O)(=O)n2cc(CNc3ccc(N4CCOCC4)cc3)cc2-c2c(OC)cc(OC)cc2OC)cc1 [Example 99] | < 1 | 0 | 0 | 2 (strong activity comprising more than 50% of the cells) | 2 (strong activity comprising more than 50% of the cells) | 0 | 0 | 2 (strong activity comprising more than 50% of the cells) | 2 (strong activity comprising more than 50% of the cells) | 0 | 0 | 2 (strong activity comprising more than 50% of the cells) | 2 (strong activity comprising more than 50% of the cells) | 0 | 0 | 2 (strong activity comprising more than 50% of the cells) | 2 (strong activity comprising more than 50% of the cells) | 0 | 0 | 1 (weak activity comprising less than 50% of the cells) | IC50 (Jurkat): < 1 µM; IC50 (HeLa): < 1 µM; IC50 (MRC5): > 1 µM; Hoechst 33342 nuclear staining score, MRC5 ([1]; conc 3): 1 (weak activity comprising less than 50% of the cells); Hoechst 33342 nuclear staining score, PBLs ([1]; conc 0.1): 0; Hoechst 33342 nuclear staining score, PBLs ([1]; conc 0.3): 0; Hoechst 33342 nuclear staining score, PBLs ([1]; conc 1): 0; Hoechst 33342 nuclear staining score, PBLs ([1]; conc 3): 0
COc1ccc(S(=O)(=O)n2cc(-c3cncc(C(N)=O)c3)cc2-c2cc(OC)ccc2OC)cc1 [Example 105] | < 1 | 0 | 0 | 0 | 2 (strong activity comprising more than 50% of the cells) | 0 | 0 | 0 | 2 (strong activity comprising more than 50% of the cells) | 0 | 0 | 2 (strong activity comprising more than 50% of the cells) | 2 (strong activity comprising more than 50% of the cells) | 0 | 0 | 2 (strong activity comprising more than 50% of the cells) | 2 (strong activity comprising more than 50% of the cells) | 0 | 0 | 0 | IC50 (Jurkat): < 1 µM; IC50 (HeLa): > 1 µM; IC50 (MRC5): > 1 µM; Hoechst 33342 nuclear staining score, MRC5 ([1]; conc 3): 1 (weak activity comprising less than 50% of the cells); Hoechst 33342 nuclear staining score, PBLs ([1]; conc 0.1): 0; Hoechst 33342 nuclear staining score, PBLs ([1]; conc 0.3): 0; Hoechst 33342 nuclear staining score, PBLs ([1]; conc 1): 0; Hoechst 33342 nuclear staining score, PBLs ([1]; conc 3): 0
COc1cc(-c2cc(-c3cccnc3)cn2S(=O)(=O)c2ccc([N+](=O)[O-])cc2)cc(OC)c1OC [Example 92] | > 1 | 0 | 0 | 0 | 1 (weak activity comprising less than 50% of the cells) | 0 | 0 | 0 | 0 | 0 | 0 | 0 | 2 (strong activity comprising more than 50% of the cells) | 0 | 0 | 0 | 2 (strong activity comprising more than 50% of the cells) | 0 | 0 | 0 | IC50 (Jurkat): > 1 µM; IC50 (HeLa): > 1 µM; IC50 (MRC5): > 1 µM; Hoechst 33342 nuclear staining score, MRC5 ([1]; conc 3): 0; Hoechst 33342 nuclear staining score, PBLs ([1]; conc 0.1): 0; Hoechst 33342 nuclear staining score, PBLs ([1]; conc 0.3): 0; Hoechst 33342 nuclear staining score, PBLs ([1]; conc 1): 0; Hoechst 33342 nuclear staining score, PBLs ([1]; conc 3): 0
